# US20120101277A1, “CRYSTALLINE FORM OF POSACONAZOLE” (SANDOZ AG, priority 2009, published 2012)
# Tests used:
# [1] = under the conditions investigated in WO 99/18097; cited from earlier work
# [2] = Moisture sorption isotherm (SPS-11 moisture sorption analyzer); assay type: physicochemical
# Method: The moisture sorption isotherm was recorded with a SPS-11 moisture sorption analyzer (MD Mess-technik, Ulm, D). The measurement cycle was started at 0% relative humidity (RH), increased in 10% steps up to 90% RH and in a 5% step up to 95% RH. The equilibrium condition for each step was set to a constant mass±0.003% over 49 min. The temperature was 25±0.1° C.
# At ambient conditions form II-S contains approximately 1 mol water (monohydrate). […] The maximum water content peaks at 5.2% at 90% relative humidity, which corresponds to a water mol ratio of 2.0 (FIG. 4).
SMILES,stability of the crystalline form [1],"water content at ambient conditions ([2]; ambient conditions, per mole posaconazole (monohydrate))","water mol ratio at maximum water content ([2]; at 90% relative humidity, 25 °C, corresponds to the 5.2% water content)",step of water uptake/loss ([2]; between 0 and 10% relative humidity),"maximum water content ([2]; moisture sorption isotherm, at 90% relative humidity, 25 °C) [%]"
"CC[C@@H]([C@H](C)O)n1ncn(-c2ccc(N3CCN(c4ccc(OC[C@@H]5CO[C@@](Cn6cncn6)(c6ccc(F)cc6F)C5)cc4)CC3)cc2)c1=O [form II, posaconazole]",unstable,,,,
"CC[C@@H]([C@H](C)O)n1ncn(-c2ccc(N3CCN(c4ccc(OC[C@@H]5CO[C@@](Cn6cncn6)(c6ccc(F)cc6F)C5)cc4)CC3)cc2)c1=O [form II-S, 2,5-anhydro-1,3,4-trideoxy-2-C-(2,4-difluorophenyl)-4-[[4-[4-[4-[1-[(1S,2S)-1-ethyl-2-hydroxypropyl]-1,5-dihydro-5-oxo-4H-1,2,4-triazol-4-yl]phenyl]-1-piperazinyl]phenoxy]methyl]-1-(1H-1,2,4-triazol-1-yl)-D-threo-pentitol]",,approximately 1 mol water,2.0,over 0.5 mol water,5.2
